This is an account of results in patent US12677825B2, “Composition for protecting islet transplantation” (LG CHEM, LTD., priority 2020, dated 2026).

The test system of assay [1] is islet grafts in STZ-induced diabetic hIAPP+/− FVB/N mice. The experiment in a line: Amyloid accumulation in islet grafts (thioflavin S staining). It is filed as in vivo, mouse. Particulars: islets cultured 72 hours with Compound 1, vs control group; FIG. 7G. The protocol:
A marginal mass renal subcapsular islet transplantation model was used to assess the in vivo islet function of hIAPP^+/− mice. To induce diabetes, 180 mg/kg of streptozotocin (STZ, Sigma-Aldrich) was administered to 8- to 10-week-old FVB/N mice. Mice were considered to have diabetes when two consecutive blood glucose level readings were higher than 300 mg/dL. Equal amounts (400 IEQ of islets per recipient) of islets isolated from hIAPP^+/− mice were allocated to the following two groups: culture medium supplemented with 0.625% BSA (BSA group) and 0.625% BSA plus Compound 1 (BSA+Compound 1 group) to evaluate the combined effect of Compound 1 on islet mass and function during ex vivo culture. After culture for 72 hours, islets were transplanted into the renal subscapular space of diabetic hIAPP^+/− mice. The IE number was calculated using the Ricordi algorithm by classifying islets according to their diameter. After islet transplantation, non-fasting blood glucose levels were measured three times a week for the first 2 weeks and twice a week for the last 2 weeks. […]

Assay [2] relates to islets from hIAPP+/− FVB/N mice. The experiment in a line: Serum-deprived culture of mouse islets (viability, ROS). It is filed as cell-based. Conditions: dose-dependent 0.1 μM to 20 μM. As to the method:
Purified hIAPP^+/− FVB/N and C57BL/6J mouse were suspended in RPMI 1640 (Gibco, Grand Island, NY, USA) containing 100 IU/mL penicillin and 100 μg/mL streptomycin, and cultured at 37° C. in a fully humidified 5% CO2 atmosphere. Purified NHP islets were suspended in CMRL 1066 medium (Coming Life Sciences, Tewksbury, MA; catalog number 99-663-CV) containing 100 IU/mL penicillin and 100 μg/mL streptomycin, and cultured at 37° C. in a fully humidified 5% CO2 atmosphere. […]
The viability of islets was evaluated using Alamar blue staining according to the manufacturer's protocol (Invitrogen, Grand Island, NY, USA). […] The fluorescence intensity of each well was measured at 570/585 nm (excitation/emission) using a GloMax-Multi Plus Detection System (Promega, Fitchburg, WI, USA), and the values were normalized to a blank.
The oxidative stress levels in hIAPP^+/− mouse islets were determined right after islet isolation and after ex vivo culture of isolated islets. The oxidative stress of the islets was quantified using a fluorescence-based intracellular ROS detection method and by estimating the concentration of malondialdehyde (MDA), a by-product of lipid peroxidation. The formation of total ROS, superoxide ion and nitric oxide was determined using a reactive oxygen species detection kit (ENZ-51011, Enzo Life Sciences, Farmingdale, New York, USA). […]

For assay [3] the test system is unchanged. Description: ATP assay of islets isolated with or without Compound 1. The class given is cell-based, mouse. Conditions: 20 μM Compound 1 during islet isolation, vs non-treated group; FIG. 1B. As to the method:
Mouse islets were isolated from 10- to 12-week-old hIAPP^+/− and C57BL/6 mice as described previously. Briefly, 0.8 mg/mL of collagenase P (Roche, Indianapolis, IN, USA) in Hank's buffered saline solution (HBSS, Sigma-Aldrich, St. Louis, MO, USA) with or without 20 μM Compound 1 were infused into the common bile duct for mouse pancreas digestion. Islets were purified from the digested pancreas using a Ficoll (Biochrom, Berlin, Germany) gradient and washed several times with 1 xHBSS. Isolated islets were cultured while free-floating in 10 mL of RPMI 1640 (Gibco, Grand Island, NY, USA). The medium was supplemented with 10% heat-inactivated FBS (fetal bovine serum) at 37° C. and 5% CO2 incubation prior to the ex vivo and in vivo studies.
ATP content of islets was assayed by a luminometric method. The samples were mixed with 200 μL of a commercially available lyophilized ATP monitoring reagent containing firefly luciferase and luciferin (ATP Bioluminescence Assay KIT CLS II, Roche Diagnostics) at first reconstituted in an imidazole buffer (100 mM, pH 7.75). The emitted light was measured in a luminometer (LKB 1250 luminometer). The adenine nucleotide content in samples was determined after correction of the control (no islet or cell) and calculated by reference to ATP standards treated in the same manner as the samples.

Structures are written as SMILES.

Consider `O=S1(=O)CCN(Cc2cc(NC3CCOCC3)c3[nH]c(-c4ccccc4)cc3c2)CC1` [Compound 1], for which the “proportion of accumulation of amyloid in sections of islet grafts” value in assay [1] is “significantly reduced”. For the same compound, the relative cell viability result in assay [2] (FIG. 4D) is listed as “significantly increased”. In assay [2] (FIG. 4F), the “serum deprivation-induced ROS” value is reported as “decreased”. The “levels of ATP” value in assay [3] is “significantly elevated”.
